{
  "source": "ChEMBL document CHEMBL5614422",
  "about": "“Design, synthesis and biological evaluation of N-salicyloyl tryptamine derivatives as multifunctional neuroprotectants for the treatment of ischemic stroke” (Eur J Med Chem, 2024)",
  "key": {"[1]": {"assay": "Aqueous solubility of the compound incubated for 72 hrs under shaking condition by HPLC analysis", "type": "physicochemical"}, "[2]": {"assay": "Acute toxicity in Kunming mouse assessed as effect on spleen at 500 mg/kg, ip measured after 14 days by H and E staining based analysis", "type": "organism-based", "details": "in vivo, 336 h, time 14 day"}, "[3]": {"assay": "Acute toxicity in Kunming mouse assessed as effect on body weight at 500 mg/kg, ip measured after 14 days", "type": "organism-based", "details": "in vivo, 336 h, time 14 day"}, "[4]": {"assay": "Acute toxicity in Kunming mouse assessed as effect on lung at 500 mg/kg, ip measured after 14 days by H and E staining based analysis", "type": "organism-based", "details": "in vivo, 336 h, time 14 day"}, "[5]": {"assay": "Acute toxicity in Kunming mouse assessed as effect on kidney at 500 mg/kg, ip measured after 14 days by H and E staining based analysis", "type": "organism-based", "details": "in vivo, 336 h, time 14 day"}, "[6]": {"assay": "Acute toxicity in Kunming mouse assessed as effect on liver at 500 mg/kg, ip measured 14 days by H and E staining based analysis", "type": "organism-based", "details": "in vivo, 336 h, time 14 day"}, "[7]": {"assay": "Half life in 12 hrs fasted male Sprague-Dawley rat at 50 mg/kg measured upto 48 hrs by LC-MS/MS analysis", "type": "ADME, organism-based", "details": "in vivo"}, "[8]": {"assay": "Acute toxicity in Kunming mouse assessed as effect on heart at 500 mg/kg, ip measured after 14 days by H and E staining based analysis", "type": "organism-based", "details": "in vivo, 336 h, time 14 day"}, "[9]": {"system": "HT-22", "assay": "Anti-apoptotic activity in OGD/R mouse HT-22 cells assessed as viable cells at 5 uM by annexin V-FITC and PI staining based flow cytometry analysis (reference value: 83.09%)", "type": "functional", "details": "read-out: Activity"}, "[10]": {"system": "HT-22", "assay": "Neuroprotective activity against OGD/R induced cell damage in mouse HT-22 cells assessed as cell viability at 10 uM measured after 24 hrs by MTT assay (reference value: 69.01 +/-2.90%)", "type": "functional", "details": "read-out: Activity"}, "[11]": {"system": "HT-22", "assay": "Anti-apoptotic activity in OGD/R mouse HT-22 cells assessed as necrotic cells at 1 uM by annexin V-FITC and PI staining based flow cytometry analysis (reference value: 0.14%)", "type": "functional"}, "[12]": {"assay": "Drug concentration in male Sprague-Dawley rat plasma at 60 mg/kg, ip measured after 4 hrs by LC-MS analysis", "type": "ADME, organism-based"}, "[13]": {"assay": "Drug concentration in male Sprague-Dawley rat Cerebrospinal fluid at 60 mg/kg, ip measured after 2 hrs by LC-MS analysis", "type": "ADME, organism-based", "details": "read-out: Ct"}, "[14]": {"system": "HT-22", "assay": "Anti-apoptotic activity in OGD/R mouse HT-22 cells assessed as late apoptotic cells at 10 uM by annexin V-FITC and PI staining based flow cytometry analysis (reference value: 7.26%)", "type": "functional"}, "[15]": {"system": "HT-22", "assay": "Anti-apoptotic activity in OGD/R mouse HT-22 cells assessed as late apoptotic cells at 5 uM by annexin V-FITC and PI staining based flow cytometry analysis (reference value: 7.26%)", "type": "functional"}, "[16]": {"system": "HT-22", "assay": "Antioxidant activity against OGD/R induced damage in mouse HT-22 cells assessed as decrease in proportion of mitochondrial depolarized cells at 1 uM by JC-1 fluorescence based flow cytometry analysis (reference value: 91.7%)", "type": "functional", "parameters": "scale not given: the % may be the effect or the level left"}, "[17]": {"system": "HT-22", "assay": "Anti-apoptotic activity in OGD/R mouse HT-22 cells assessed as viable cells at 1 uM by annexin V-FITC and PI staining based flow cytometry analysis (reference value: 83.09%)", "type": "functional", "details": "read-out: Activity"}, "[18]": {"system": "HT-22", "assay": "Anti-apoptotic activity in OGD/R mouse HT-22 cells assessed as early apoptotic cells at 10 uM by annexin V-FITC and PI staining based flow cytometry analysis (reference value: 9.51%)", "type": "functional"}, "[19]": {"system": "HT-22", "assay": "Anti-apoptotic activity in OGD/R mouse HT-22 cells assessed as early apoptotic cells at 1 uM by annexin V-FITC and PI staining based flow cytometry analysis (reference value: 9.51%)", "type": "functional"}, "[20]": {"system": "HT-22", "assay": "Anti-apoptotic activity in OGD/R mouse HT-22 cells assessed as necrotic cells at 10 uM by annexin V-FITC and PI staining based flow cytometry analysis (reference value: 0.14%)", "type": "functional"}, "[21]": {"assay": "Drug concentration in male Sprague-Dawley rat Cerebrospinal fluid at 60 mg/kg, ip measured after 0.5 hrs by LC-MS analysis", "type": "ADME, organism-based", "details": "read-out: Ct"}, "[22]": {"system": "HT-22", "assay": "Anti-apoptotic activity in OGD/R mouse HT-22 cells assessed as late apoptotic cells at 1 uM by annexin V-FITC and PI staining based flow cytometry analysis (reference value: 7.26%)", "type": "functional"}, "[23]": {"assay": "Cytotoxicity against mouse BV-2 cells assessed as cell viability incubated for 24 hrs by CCK-8 method", "type": "toxicity, cell-based"}, "[24]": {"system": "HT-22", "assay": "Anti-apoptotic activity in OGD/R mouse HT-22 cells assessed as early apoptotic cells at 5 uM by annexin V-FITC and PI staining based flow cytometry analysis (reference value: 9.51%)", "type": "functional"}, "[25]": {"assay": "Permeability of the compound by PAMPA method", "type": "ADME", "details": "read-out: permeability"}, "[26]": {"assay": "Drug concentration in male Sprague-Dawley rat plasma at 60 mg/kg, ip measured after 0.5 hrs by LC-MS analysis", "type": "ADME, organism-based"}, "[27]": {"assay": "Drug concentration in male Sprague-Dawley rat Cerebrospinal fluid at 60 mg/kg, ip measured after 4 hrs by LC-MS analysis", "type": "ADME, organism-based", "details": "read-out: Ct"}, "[28]": {"assay": "Cytotoxicity against mouse HT-22 cells assessed as cell viability incubated for 24 hrs by CCK-8 method", "type": "toxicity, cell-based"}, "[29]": {"assay": "Drug concentration in male Sprague-Dawley rat plasma at 60 mg/kg, ip measured after 2 hrs by LC-MS analysis", "type": "ADME, organism-based"}, "[30]": {"system": "HT-22", "assay": "Antioxidant activity against OGD/R induced damage in mouse HT-22 cells assessed as decrease in proportion of mitochondrial depolarized cells at 5 uM by JC-1 fluorescence based flow cytometry analysis (reference value: 91.7%)", "type": "functional", "parameters": "scale not given: the % may be the effect or the level left"}, "[31]": {"system": "HT-22", "assay": "Antioxidant activity against OGD/R induced damage in mouse HT-22 cells assessed as decrease in proportion of mitochondrial depolarized cells at 10 uM by JC-1 fluorescence based flow cytometry analysis (reference value: 91.7%)", "type": "functional", "parameters": "scale not given: the % may be the effect or the level left"}, "[32]": {"system": "HT-22", "assay": "Anti-apoptotic activity in OGD/R mouse HT-22 cells assessed as viable cells at 10 uM by annexin V-FITC and PI staining based flow cytometry analysis (reference value: 83.09%)", "type": "functional", "details": "read-out: Activity"}, "[33]": {"system": "HT-22", "assay": "Anti-apoptotic activity in OGD/R mouse HT-22 cells assessed as necrotic cells at 5 uM by annexin V-FITC and PI staining based flow cytometry analysis (reference value: 0.14%)", "type": "functional"}},
  "data": [
    {"smiles": "Cc1ccc(C(=O)NCCc2c[nH]c3ccc(N(C)C)cc23)c(O)c1.Cl", "values": [
      {"measurement": "solubility thermodynamic at 72 h", "setting": "[1]", "value": 2300, "unit": "µg/mL"},
      {"measurement": "Activity", "setting": "[2]", "value": "Non-Toxic"},
      {"measurement": "Activity", "setting": "[3]", "value": "Non-Toxic"},
      {"measurement": "Activity", "setting": "[4]", "value": "Non-Toxic"},
      {"measurement": "Activity", "setting": "[5]", "value": "Non-Toxic"},
      {"measurement": "Activity", "setting": "[6]", "value": "Non-Toxic"},
      {"measurement": "half-life", "setting": "[7]", "value": 3.96, "unit": "h"},
      {"measurement": "Activity", "setting": "[8]", "value": "Non-Toxic"}
    ]},
    {"smiles": "Cc1ccc(C(=O)NCCc2c[nH]c3ccc(N(C)C)cc23)c(O)c1", "values": [
      {"measurement": "viability at 5 µM", "setting": "[9]", "value": 93.7, "unit": "%"},
      {"measurement": "viability at 10 µM", "setting": "[10]", "value": 92.7, "unit": "%"},
      {"measurement": "Activity", "setting": "[11]", "value": 0.15, "unit": "%"},
      {"measurement": "solubility thermodynamic at 72 h", "setting": "[1]", "value": 40, "unit": "µg/mL"},
      {"measurement": "concentration at 4 h", "setting": "[12]", "value": 186, "unit": "ng/mL"},
      {"measurement": "concentration at 2 h", "setting": "[13]", "value": 30, "unit": "ng/mL"},
      {"measurement": "Activity", "setting": "[14]", "value": 3.37, "unit": "%"},
      {"measurement": "Activity", "setting": "[15]", "value": 3.67, "unit": "%"},
      {"measurement": "Activity", "setting": "[16]", "value": 81.7, "unit": "%"},
      {"measurement": "viability at 1 µM", "setting": "[17]", "value": 88, "unit": "%"},
      {"measurement": "Activity", "setting": "[18]", "value": 2.01, "unit": "%"},
      {"measurement": "half-life", "setting": "[7]", "value": 4.56, "unit": "h"},
      {"measurement": "Activity", "setting": "[19]", "value": 5.95, "unit": "%"},
      {"measurement": "Activity", "setting": "[20]", "value": 1.06, "unit": "%"},
      {"measurement": "concentration at 0.5 h", "setting": "[21]", "value": 53, "unit": "ng/mL"},
      {"measurement": "Activity", "setting": "[22]", "value": 5.84, "unit": "%"},
      {"measurement": "IC50 at 24 h", "setting": "[23]", "value": "> 100", "unit": "µM"},
      {"measurement": "Activity", "setting": "[24]", "value": 2.34, "unit": "%"},
      {"measurement": "Papp", "setting": "[25]", "value": 8.29, "unit": "×10⁻⁶ cm/s"},
      {"measurement": "concentration at 0.5 h", "setting": "[26]", "value": 4120, "unit": "ng/mL"},
      {"measurement": "concentration at 4 h", "setting": "[27]", "value": 20, "unit": "ng/mL"},
      {"measurement": "IC50 at 24 h", "setting": "[28]", "value": "> 100", "unit": "µM"},
      {"measurement": "concentration at 2 h", "setting": "[29]", "value": 633, "unit": "ng/mL"},
      {"measurement": "Activity", "setting": "[30]", "value": 54, "unit": "%"},
      {"measurement": "Activity", "setting": "[31]", "value": 49.2, "unit": "%"},
      {"measurement": "viability at 10 µM", "setting": "[32]", "value": 93.6, "unit": "%"},
      {"measurement": "Activity", "setting": "[33]", "value": 0.33, "unit": "%"}
    ]}
  ]
}
